From patent USRE49050E1, “Traditional Chinese medicine composition, and preparation and application thereof” (Tasly Pharmaceutical Group Co., Ltd., priority 2013, dated 2022) come the findings set out here.

What all share (format): in vivo
Assay [1] concerns ADP-induced platelet aggregation. The assay can be described thus: Platelet aggregation rate trial in rabbits, ADP-induced. As to conditions: ADP 3 μg/ml; dose 60 mg/kg intragastric once a day for 7 days; n = 8. The method, then: (§1) The rabbits were randomly grouped into 4 groups: the model group was given with distilled water, the aspirin group ([…]), Extract A groups of low dose and high dose at 42 and 84 mg/kg (respectively 1 2 times of clinic equivalent dosage), intragastrically administrated, once a day for 7 consecutive days. The volume of medicine administrated was 1 ml/kg body weight. 60 min after intragastric administration on 7th day, the animals were anesthetized locally, blooded through carotid artery, anticoagulated with sodium citrate (3.8%) 1:9 and centrifugated at 1000 r/min for 10 min. Platelet-rich plasma (PRP) was taken and the remain centrifugated at 3000 r/min to take platelet-poor plasma (PPP. Aggregation was induced by ADP (final concentration 3 μg/ml), AA (final concentration 80 μg/ml) and collagen ([…]). […] platelet aggregation & coagulation factor analyzer was used to measure the maximum platelet aggregation rate and to calculate inhibition rate according to following formula. [formula] Results

For assay [2], the system named is AA-induced platelet aggregation. The assay can be described thus: Platelet aggregation rate trial in rabbits, AA-induced. The conditions noted are these: AA 80 μg/ml; dose 60 mg/kg intragastric once a day for 7 days; n = 8. The protocol:
as §1

Assay [3] deals with collagen-induced platelet aggregation. The assay can be described thus: Platelet aggregation rate trial in rabbits, collagen-induced. The conditions noted are these: dose 60 mg/kg intragastric once a day for 7 days, n = 8. The method, then:
as §1

In the case of `CC(=O)Oc1ccccc1C(=O)O` [Aspirin], the Platelet aggregation rate is reported as 18.96 ± 4.11 % in assay [1], 6.13 ± 2.03 % in assay [2] and 6.23 ± 2.41 % in assay [3].
